These results are taken from ChEMBL document CHEMBL4190187, “Discovery of pyrazolopyrimidine derivatives as novel inhibitors of ataxia telangiectasia and rad3 related protein (ATR)” (Bioorg Med Chem Lett, 2017).

Assay [1] addresses Calcium/calmodulin-dependent protein kinase type IV (Homo sapiens) (UniProt Q16566). Description: Inhibition of recombinant full-length human CAMK4 at 1 uM using […] after 40 mins in presence of [gamma-33P]ATP by scintillation counting method.
Assay [2] has as its target Serine/threonine-protein kinase 35 (Homo sapiens) (UniProt Q8TDR2). The assay is described as follows: Inhibition of recombinant full-length human CLIK1 at 1 uM using RSRSRSRSRSRSRSR as substrate after 40 mins in presence of [gamma-33P]ATP by scintillation counting method.
The target in assay [3] is MAP/microtubule affinity-regulating kinase 3 (Homo sapiens) (UniProt P27448). Description: Inhibition of recombinant full-length human MARK3 at 1 uM using KKKVSRSGLYRSPSMPENLNRPR as substrate after 40 mins in presence of [gamma-33P]ATP by scintillation counting method.
MAP/microtubule affinity-regulating kinase 3 (Homo sapiens), sequence (P27448 whole entry, looked up): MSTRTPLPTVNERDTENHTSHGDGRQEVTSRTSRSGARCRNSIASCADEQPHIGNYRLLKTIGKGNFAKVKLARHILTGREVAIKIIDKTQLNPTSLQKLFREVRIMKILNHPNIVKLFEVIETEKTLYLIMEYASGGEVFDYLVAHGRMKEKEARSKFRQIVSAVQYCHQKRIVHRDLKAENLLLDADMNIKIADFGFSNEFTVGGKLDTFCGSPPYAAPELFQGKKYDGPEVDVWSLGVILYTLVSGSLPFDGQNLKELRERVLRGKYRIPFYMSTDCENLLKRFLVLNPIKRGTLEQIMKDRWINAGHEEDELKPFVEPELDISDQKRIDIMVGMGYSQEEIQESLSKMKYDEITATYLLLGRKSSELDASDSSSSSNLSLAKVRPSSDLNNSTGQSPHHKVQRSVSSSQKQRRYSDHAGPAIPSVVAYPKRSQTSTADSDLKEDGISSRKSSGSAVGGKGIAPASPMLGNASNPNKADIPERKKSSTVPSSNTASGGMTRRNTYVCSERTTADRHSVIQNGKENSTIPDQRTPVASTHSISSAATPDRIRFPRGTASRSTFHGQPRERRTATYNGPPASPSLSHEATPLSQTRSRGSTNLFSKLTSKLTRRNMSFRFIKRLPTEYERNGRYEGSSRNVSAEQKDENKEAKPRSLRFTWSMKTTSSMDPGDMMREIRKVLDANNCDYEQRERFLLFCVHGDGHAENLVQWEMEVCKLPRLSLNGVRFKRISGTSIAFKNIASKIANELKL
In assay [4] the target is Serine/threonine-protein kinase PAK 3 (Homo sapiens) (UniProt O75914). The assay is described as follows: Inhibition of recombinant full-length human PAK3 at 1 uM using RRRLSFAEPG as substrate after 40 mins in presence of [gamma-33P]ATP by scintillation counting method.
Serine/threonine-protein kinase PAK 3 (Homo sapiens), sequence (O75914 whole entry, looked up): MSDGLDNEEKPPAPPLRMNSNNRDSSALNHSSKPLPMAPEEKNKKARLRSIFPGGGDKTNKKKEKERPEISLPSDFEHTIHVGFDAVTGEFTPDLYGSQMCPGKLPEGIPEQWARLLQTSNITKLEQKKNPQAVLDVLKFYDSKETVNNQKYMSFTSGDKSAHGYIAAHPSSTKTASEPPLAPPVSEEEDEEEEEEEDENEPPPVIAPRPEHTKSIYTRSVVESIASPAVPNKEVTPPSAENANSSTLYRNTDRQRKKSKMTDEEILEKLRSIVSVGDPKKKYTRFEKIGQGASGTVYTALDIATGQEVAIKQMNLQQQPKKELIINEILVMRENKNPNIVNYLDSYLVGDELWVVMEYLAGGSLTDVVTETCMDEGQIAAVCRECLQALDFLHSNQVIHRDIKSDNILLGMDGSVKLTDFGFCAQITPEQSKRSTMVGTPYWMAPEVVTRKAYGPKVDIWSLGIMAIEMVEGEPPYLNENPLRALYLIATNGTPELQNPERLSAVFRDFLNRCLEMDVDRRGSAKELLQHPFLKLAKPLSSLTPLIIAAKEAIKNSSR
Assay [5] addresses T1, PI3K p110 alpha/p85 alpha (Mus musculus) (UniProt P26450+P42337). Description: Inhibition of recombinant full-length mouse p110a E542K mutant/p85a at 1 uM using phosphatidylinositol 4,5-bisphosphate as substrate after 40 mins in presence of [gamma-33P]ATP by scintillation counting method. Format: protein-complex assay.
Assay [6] concerns the target T1, PI3K p110 alpha/p85 alpha (Mus musculus). Description: Inhibition of recombinant full-length mouse p110a H1047R mutant/p85a at 1 uM using phosphatidylinositol 4,5-bisphosphate as substrate after 40 mins in presence of [gamma-33P]ATP by scintillation counting method. The assay is classed as protein-complex assay.
Assay [7] has as its target Protein kinase C eta type (Homo sapiens) (UniProt P24723). The assay is described as follows: Inhibition of recombinant human PKCeta (2 to end residues) at 1 uM using ERMRPRKRQGSVRRRV as substrate after 40 mins in presence of [gamma-33P]ATP by scintillation counting method.
Assay [8] deals with Serine/threonine-protein kinase Sgk1 (Homo sapiens) (UniProt O00141). Description: Inhibition of recombinant human SGK (60 to end residues) at 1 uM using GRPRTSSFAEGKK as substrate after 40 mins in presence of [gamma-33P]ATP by scintillation counting method.
Serine/threonine-protein kinase Sgk1 (Homo sapiens), sequence (O00141 whole entry, the tested form may be a part): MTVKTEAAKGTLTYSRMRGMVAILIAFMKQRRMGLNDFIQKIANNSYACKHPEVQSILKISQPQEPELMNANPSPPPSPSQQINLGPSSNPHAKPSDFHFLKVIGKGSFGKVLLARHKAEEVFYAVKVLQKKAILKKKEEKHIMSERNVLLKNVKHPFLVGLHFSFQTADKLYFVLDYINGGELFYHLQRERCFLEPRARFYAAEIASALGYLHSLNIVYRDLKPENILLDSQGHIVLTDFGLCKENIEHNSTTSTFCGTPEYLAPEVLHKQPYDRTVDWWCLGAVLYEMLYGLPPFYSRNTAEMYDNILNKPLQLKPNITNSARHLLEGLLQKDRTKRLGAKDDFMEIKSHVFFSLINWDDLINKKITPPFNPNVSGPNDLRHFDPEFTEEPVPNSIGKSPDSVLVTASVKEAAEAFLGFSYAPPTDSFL
Assay [9] concerns the target Serine/threonine-protein kinase 25 (Homo sapiens) (UniProt O00506). Description: Inhibition of recombinant human STK25 (1 to 308 residues) at 1 uM using RLGRDKYKTLRQIRQ as substrate after 40 mins in presence of [gamma-33P]ATP by scintillation counting method.
Assay [10] relates to Angiopoietin-1 receptor (Homo sapiens), Q02763 [R849W]. The assay is described as follows: Inhibition of recombinant activated human Tie2 R849W mutant (771 to end residues) at 1 uM using EFPIYDFLPAKKK as substrate after 40 mins in presence of [gamma-33P]ATP by scintillation counting method.
Angiopoietin-1 receptor (Homo sapiens), Q02763 [R849W], sequence (Q02763 whole entry R849W): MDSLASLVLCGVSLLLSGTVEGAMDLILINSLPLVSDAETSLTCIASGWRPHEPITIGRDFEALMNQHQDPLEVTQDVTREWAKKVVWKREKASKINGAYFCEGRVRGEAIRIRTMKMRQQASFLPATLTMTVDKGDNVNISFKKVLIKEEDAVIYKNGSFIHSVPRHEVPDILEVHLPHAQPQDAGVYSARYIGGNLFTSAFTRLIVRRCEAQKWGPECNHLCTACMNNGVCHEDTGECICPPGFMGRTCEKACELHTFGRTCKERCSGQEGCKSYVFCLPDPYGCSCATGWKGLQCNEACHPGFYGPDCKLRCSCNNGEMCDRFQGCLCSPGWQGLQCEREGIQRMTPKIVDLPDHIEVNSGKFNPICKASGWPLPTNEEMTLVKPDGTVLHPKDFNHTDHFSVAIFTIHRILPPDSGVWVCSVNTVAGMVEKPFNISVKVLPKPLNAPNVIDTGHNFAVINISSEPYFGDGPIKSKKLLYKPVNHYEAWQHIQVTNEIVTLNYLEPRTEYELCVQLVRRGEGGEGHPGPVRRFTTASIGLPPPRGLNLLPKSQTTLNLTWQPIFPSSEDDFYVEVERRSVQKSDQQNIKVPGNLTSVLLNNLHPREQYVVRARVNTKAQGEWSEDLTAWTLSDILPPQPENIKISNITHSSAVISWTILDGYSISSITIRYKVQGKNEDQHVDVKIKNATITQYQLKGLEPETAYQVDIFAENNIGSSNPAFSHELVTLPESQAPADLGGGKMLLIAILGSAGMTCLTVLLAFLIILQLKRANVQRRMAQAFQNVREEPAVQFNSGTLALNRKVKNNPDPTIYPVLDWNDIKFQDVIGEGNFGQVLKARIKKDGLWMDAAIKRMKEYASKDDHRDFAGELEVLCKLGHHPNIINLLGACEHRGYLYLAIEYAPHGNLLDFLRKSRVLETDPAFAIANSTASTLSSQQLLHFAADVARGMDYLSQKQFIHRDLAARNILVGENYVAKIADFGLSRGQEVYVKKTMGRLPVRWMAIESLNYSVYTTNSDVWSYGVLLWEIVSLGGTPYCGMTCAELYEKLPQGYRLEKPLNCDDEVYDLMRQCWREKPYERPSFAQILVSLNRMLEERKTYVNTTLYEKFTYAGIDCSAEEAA

Calcium/calmodulin-dependent protein kinase type IV (Homo sapiens), sequence (Q16566 whole entry): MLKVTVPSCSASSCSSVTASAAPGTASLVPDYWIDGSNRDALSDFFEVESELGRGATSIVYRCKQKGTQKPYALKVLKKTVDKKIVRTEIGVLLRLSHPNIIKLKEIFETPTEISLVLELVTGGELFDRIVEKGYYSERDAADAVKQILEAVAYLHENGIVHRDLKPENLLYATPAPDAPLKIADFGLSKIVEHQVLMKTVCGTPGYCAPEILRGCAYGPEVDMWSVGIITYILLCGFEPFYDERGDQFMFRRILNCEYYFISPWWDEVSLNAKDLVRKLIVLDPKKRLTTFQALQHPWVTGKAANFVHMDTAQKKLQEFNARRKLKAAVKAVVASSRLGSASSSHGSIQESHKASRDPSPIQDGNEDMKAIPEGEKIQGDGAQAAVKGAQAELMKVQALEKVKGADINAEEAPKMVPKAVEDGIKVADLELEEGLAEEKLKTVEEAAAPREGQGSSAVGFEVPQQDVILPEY
Serine/threonine-protein kinase 35 (Homo sapiens), sequence (Q8TDR2 whole entry): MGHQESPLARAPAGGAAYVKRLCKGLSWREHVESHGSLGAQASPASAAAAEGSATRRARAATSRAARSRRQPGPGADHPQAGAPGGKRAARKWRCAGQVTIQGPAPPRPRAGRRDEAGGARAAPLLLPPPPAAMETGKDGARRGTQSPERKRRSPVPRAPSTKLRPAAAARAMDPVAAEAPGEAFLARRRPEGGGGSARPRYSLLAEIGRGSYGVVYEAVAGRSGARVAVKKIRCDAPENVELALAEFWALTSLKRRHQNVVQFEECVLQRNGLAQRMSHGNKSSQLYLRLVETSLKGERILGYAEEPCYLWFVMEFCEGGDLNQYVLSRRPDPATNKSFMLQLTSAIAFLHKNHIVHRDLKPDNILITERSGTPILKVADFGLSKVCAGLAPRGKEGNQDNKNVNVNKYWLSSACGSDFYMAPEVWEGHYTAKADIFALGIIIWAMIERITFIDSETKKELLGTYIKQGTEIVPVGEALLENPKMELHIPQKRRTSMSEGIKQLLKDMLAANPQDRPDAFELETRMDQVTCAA
Protein kinase C eta type (Homo sapiens), sequence (P24723 whole entry): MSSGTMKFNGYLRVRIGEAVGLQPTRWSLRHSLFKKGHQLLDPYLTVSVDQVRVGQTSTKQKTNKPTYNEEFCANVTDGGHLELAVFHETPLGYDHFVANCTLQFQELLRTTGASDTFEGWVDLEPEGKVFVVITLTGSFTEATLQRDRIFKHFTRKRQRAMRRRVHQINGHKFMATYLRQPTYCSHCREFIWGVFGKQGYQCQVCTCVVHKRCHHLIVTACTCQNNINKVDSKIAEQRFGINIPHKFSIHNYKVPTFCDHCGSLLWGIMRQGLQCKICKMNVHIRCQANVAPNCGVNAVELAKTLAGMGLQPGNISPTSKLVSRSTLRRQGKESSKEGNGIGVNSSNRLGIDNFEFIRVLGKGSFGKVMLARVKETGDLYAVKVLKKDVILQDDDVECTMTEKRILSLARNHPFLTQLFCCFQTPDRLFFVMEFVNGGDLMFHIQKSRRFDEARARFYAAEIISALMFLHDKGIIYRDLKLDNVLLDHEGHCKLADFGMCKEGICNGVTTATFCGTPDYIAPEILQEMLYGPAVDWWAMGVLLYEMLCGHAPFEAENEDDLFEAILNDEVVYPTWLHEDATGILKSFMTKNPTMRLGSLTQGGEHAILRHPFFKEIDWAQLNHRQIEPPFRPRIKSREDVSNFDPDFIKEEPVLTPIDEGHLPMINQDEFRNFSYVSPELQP
Serine/threonine-protein kinase 25 (Homo sapiens), sequence (O00506 whole entry, looked up, the tested form may be a part): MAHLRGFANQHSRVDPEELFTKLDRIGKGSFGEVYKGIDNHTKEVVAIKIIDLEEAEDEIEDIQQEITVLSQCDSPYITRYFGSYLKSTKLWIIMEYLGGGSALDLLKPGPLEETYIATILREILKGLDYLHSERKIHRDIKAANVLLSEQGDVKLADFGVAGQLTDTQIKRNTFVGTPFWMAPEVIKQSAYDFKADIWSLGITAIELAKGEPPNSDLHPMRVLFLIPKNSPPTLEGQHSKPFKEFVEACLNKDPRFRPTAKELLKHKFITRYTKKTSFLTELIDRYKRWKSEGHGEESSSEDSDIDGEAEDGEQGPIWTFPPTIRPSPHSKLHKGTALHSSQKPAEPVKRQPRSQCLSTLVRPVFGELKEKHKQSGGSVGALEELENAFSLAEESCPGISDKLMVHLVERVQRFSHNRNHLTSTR

For `CS(=O)(=O)c1ccc(-n2nc(-c3cnc4[nH]ccc4c3)c3c(N)ncnc32)cc1`, the inhibition in assay [1] is 8%; in assay [2], 3%; in [3], 4%; in assay [4], 4%; in assay [5] it was 11%; in [6], 14%. The inhibition worked out at 6% in [7], 2% in assay [8], 45% in [9] and 1% in [10].

One may read the inhibition as the percentage by which the read-out fell short of the control.
